Data taken from patent publication US20030050193A1, “Herbicide combinations comprising specific sulfonylureas” (priority 2001, published 2003).

Key:
Format in all cases: in vivo
[1] = tested on: Veronica hederifolia; test: Herbicidal action (greenhouse trials), post-emergence, visual scoring; settings: Example 2; application rate g of al/ha: amidosulfuron 8, cinidon-ethyl 13, A + B 8 + 13; scored approx. 4-6 weeks after application; 100% = all plants dead
Protocol: (§1) Herbicidal Action (Greenhouse Trials)
(§2) The seeds or rhizome pieces of typical harmful plants were placed into sandy loam soil in round pots, size 13, covered with soil and grown in a greenhouse under good growth conditions. After the harmful plants had emerged, they were treated, as a rule at the 2- to 3-leaf stage, with various dosages of the compositions according to the invention at a water application rate of 100 to 400 l/ha (converted),
(§3) After the treatment (approx. 4-6 weeks after application), the herbidical activity of the active compounds or active compound mixtures was scored visually by comparing the treated plots with the untreated controls. Damage and development of all above-ground parts of the plants was recorded. Scoring was done on a percentage scale (100% action=all plants dead; 50% action=50% of the plants and green plant parts dead; 0% action=no discernible action),
(§4) The results are listed in the tables below, where the activity measured for the independent use of the active compounds (A) and (B) is stated in brackets, […]

[2] = tested on: Galium aparine; test: as above; settings: Example 1; application rate g of ai/ha: amidosulfuron 15, florasulam 4, A + B 15 + 4; scored approx. 4-6 weeks after application; 100% = all plants dead
Protocol: as §1, §2, §3, §4

[3] = tested on: Wheat; test: Crop damage in greenhouse trials, visual scoring; settings: scored approx. 4-6 weeks after application
Protocol: as §1, §2, §3, §4

[4] = Example 1, application rate g of ai/ha: amidosulfuron 15, florasulam 4, A + B 15 + 4
[5] = Example 2, application rate g of al/ha: amidosulfuron 8, cinidon-ethyl 13, A + B 8 + 13

| Compound | Veronica hederifolia % activity [1] [%] | Galium aparine % activity [2] [%] | Wheat % damage [3, 4] [%] | Wheat % damage [3, 5] |
| --- | --- | --- | --- | --- |
| COc1cc(OC)nc(NC(=O)NS(=O)(=O)N(C)S(C)(=O)=O)n1 [Amidosulfuron, 1-(4,6-dimethoxypyrimidin-2-yl)-3-mesyl-(methyl)-sulfamoylurea] | 0 | 35 | 0 | 0 |
| CCOC(=O)/C(Cl)=C/c1cc(N2C(=O)C3=C(CCCC3)C2=O)ccc1Cl [Cinidon-ethyl, ethyl (Z)-2-chloro-3-[2-chloro-5-(1,2-cyclohex-1-enedicarboximido)phenyl]acrylate] | 15 |  |  | 0 |
| COc1ncc(F)c2nc(S(=O)(=O)Nc3c(F)cccc3F)nn12 [Florasulam, 2′,6′,8′-trifluoro-5-methoxy[1,2,4]triazolo[1,5-c]pyrimidine-2-sulfanilide] |  | 45 | 1 |  |
